Measured values: US9623063B2, “Extracts from Ajuga reptans cell lines, their preparation and use” (I.R.B. ISTITUTO DI RICERCHE BIOTECNOLOGICHE S.r.l., priority 2005, dated 2017)
Converted amounts (≈) assume the structure as drawn. Read-outs that look alike come from different tables or passages of the source.

Tests used:
[1] = Metal chelation, spectrophotometric (Fe2+); assay type: physicochemical
From the text: (§1) The chelating activities of Ajuga reptans extracts in relation to Fe^2+, Fe^3+, Cu^2+ and Ni^2+ metal ions has been determined by means of spectrophotometric measurements using a Shimadzu 1770 UV spectrophotometer. The activities of chelating agents depends on the association constant (equilibrium) of their reactions with the metals according to the following reaction:
(§2) [formula] wherein Keq is the equilibrium constant equal to the ratio of concentrations at equilibrium of a complex and a product of equilibrium concentrations of metal ions and a chelator:
(§3) The method used for determining chelating activities is well documented in the literature (Korkina L G, Afarras'er I B. Antioxidant and chelating properties of flavonoids. Adv. Pharmacol., 1997, 38:151-63). The results are expressed as Keq (M^−1) calculated for a pure phenylpropanoid. This way the chelating activity against ferrous (Fe II), ferric (Fe III), copper (Cu II) and nickel ions has been calculated.

[2] = Fe2+-induced lipid peroxidation (thiobarbituric acid); assay type: biochemical
From the text: Ajuga reptans Extracts 1 and 2, prepared as described in examples 1 and 2, and isoteupolioside have been used to assess in vitro antioxidant action with specific oxygen radical generating systems such as the superoxide anion (O2^−), the hydroxyl radical (HO^−), the peroxynitrite radical (ONOO^−) and the inhibition of lipid peroxidation. The superoxide anion has been measured by a chemiluminescent assay based on the hypoxanthine (HPX)/xanthine oxidase (XOD) reaction using the Lumimax Superoxide Anion Detection Kit (Stratagene, La Jolla, Calif., USA) and following the manufacturer's instructions. Hydroxyl radical scavenger activity has been measured by means of the Fenton reaction for the production of hydroxyl radicals and chemiluminescent dosage (using a Victor^3 chemiluminometer, Wallac, Finland) with luminol. Peroxynitrite ions have been determined by means of dosage with a spontaneous generator of peroxynitrites (3-morpholinosidnonimine hydrochloride; SIN-1) and a stable reagent for the nitroxyl ions (2-(4-carboxyphenyl)-4,4,5,5-tetramethylimidazoline-1-oxyl-3-oxide potassium salt PTIO spin trap) then dosed by means of electron spin resonance (ESR) using a Nippon Denshi JES-FR30. […]

[3] = target: T1, 5 alpha reductase, type II (Homo sapiens, UniProt P31213); experiment: Type II 5 alpha reductase inhibition ([14C] testosterone conversion); assay type: biochemical
T1 construct: made in house; host or cells: genetically modified yeast
T1 sequence (P31213 1-254): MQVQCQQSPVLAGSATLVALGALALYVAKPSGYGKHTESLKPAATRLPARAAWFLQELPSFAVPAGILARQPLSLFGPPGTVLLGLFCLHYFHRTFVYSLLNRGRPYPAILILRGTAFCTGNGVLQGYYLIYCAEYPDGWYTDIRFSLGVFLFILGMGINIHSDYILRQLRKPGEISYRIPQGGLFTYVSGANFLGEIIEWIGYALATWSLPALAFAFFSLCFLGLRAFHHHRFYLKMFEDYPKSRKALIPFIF
From the text: Determination of the 5 alpha reductase inhibitory activities by Ajuga reptans extracts in comparison to Serenoa repens extracts. Said determination has been performed using enzymes (5 alpha reductase, type I and type II) produced by genetically modified yeast. Enzyme activities have been determined in the presence of Ajuga reptans extracts, teupolioside, isoteupolioside and Serenoa repens extracts.
Determination of the type II 5 alpha reductase activity has been performed in an analogous manner to that just described, with the exception of a different pH value for the 0.1 M Tris-citrate buffer (pH 5.0).
In both assays, the steroids have been extracted using 5 ml of methylene chloride. The extracts have then been dried under a stream of nitrogen and the dried residues obtained have been dissolved in 20 μl of a chloroform-methanol mixture (2:1 v/v). An aliquot of said mixture has been deposited on the surface of a silica gel TLC plate. […] For quantification of the results, the spots have been scraped from the TLC plate and extracted with 2 ml of ethyl acetate. The extracts obtained have been analysed, using scintillation fluid, with the aid of a Wallach β-counter. The enzyme activity has been calculated from the percentage conversion (C %) of the substrate into final product: C%=[counted product/(counted substrate+product)]×100.

[4] = Hydroxyl radical scavenger activity (Fenton reaction, luminol chemiluminescence); assay type: biochemical
From the text: Ajuga reptans Extracts 1 and 2, prepared as described in examples 1 and 2, and isoteupolioside have been used to assess in vitro antioxidant action with specific oxygen radical generating systems such as the superoxide anion (O2^−), the hydroxyl radical (HO^−), the peroxynitrite radical (ONOO^−) and the inhibition of lipid peroxidation. The superoxide anion has been measured by a chemiluminescent assay based on the hypoxanthine (HPX)/xanthine oxidase (XOD) reaction using the Lumimax Superoxide Anion Detection Kit (Stratagene, La Jolla, Calif., USA) and following the manufacturer's instructions. Hydroxyl radical scavenger activity has been measured by means of the Fenton reaction for the production of hydroxyl radicals and chemiluminescent dosage (using a Victor^3 chemiluminometer, Wallac, Finland) with luminol. Peroxynitrite ions have been determined by means of dosage with a spontaneous generator of peroxynitrites (3-morpholinosidnonimine hydrochloride; SIN-1) and a stable reagent for the nitroxyl ions (2-(4-carboxyphenyl)-4,4,5,5-tetramethylimidazoline-1-oxyl-3-oxide potassium salt PTIO spin trap) then dosed by means of electron spin resonance (ESR) using a Nippon Denshi JES-FR30. Lipid peroxidation has been generated using Fe^2+ induced-oxygen reactive species, and detected using thiobarbituric acid in accordance with Buege, J A & Aust, S D: Microsomal lipid peroxidation (Methods Enzymol.
The Extract 1 and the Extract 2 set forth in Table 4 are derived from Ajuga reptans cell cultures comprising the phenylpropanoids at 90% and 54%, respectively. The results are expressed as the concentration inhibiting 50% of activity (IC50), means of 6 independent assays.

whole blood = experiment: Luminol dependent chemiluminescence of whole blood; assay type: cell-based, human; settings: 0.5 h, read-out: Whole blood chemiluminescence (IC50 mg/ml)
Experimental: (§4) Anti-inflammatory activity has been assessed by measuring luminol dependent chemiluminescence generated by free radicals released from whole blood and from white blood cells. The assay has been performed using the following protocol: 10 μl of fresh human blood is mixed with 0.980 ml of Hanks saline solution containing 5×10^−5 M luminol and the test sample (at various concentrations). The chemiluminescent response is recorded continuously for 30 minutes at a temperature of 37° C. The results are expressed as IC50 (mg/ml), i.e. as the minimum sample concentration inhibiting chemiluminescence by 50% with respect to the control. To isolate white blood cells (WBC) from whole blood one proceeds in the following manner: 1 ml of fresh blood is layered onto a Hipaque gradient (p=1.119) and centrifuged at 250×g for 60 minutes at room temperature. Following centrifugation, the pellet containing the white blood cells is washed twice, using a large volume of cold Hanks saline solution. Finally, the washed WBCs are resuspended in 0.1 ml di HBSS containing foetal calf serum. 10^6 WBC are added to a chemiluminometer cuvette. 10 μl of PMA (final concentration equal to 10 nM) are added to induce the formation of free radicals. The chemiluminescent response is recorded continuously for 30 minutes at a temperature of 37° C. […]

[5] = Metal chelation, spectrophotometric (Cu2+); assay type: physicochemical
From the text: as §1, §2, §3

white blood cells = experiment: Luminol dependent chemiluminescence of PMA-stimulated white blood cells; assay type: cell-based; settings: Homo sapiens, 0.5 h, read-out: White blood cell chemiluminescence (IC50 mg/ml)
Experimental: as §4

[6] = calculated for a pure phenylpropanoid

SMILES | Fe^2+ (Keq, M^−1) [1] | Lipid peroxidation (IC50) [2] | IC50 [3] | Hydroxyl radial (IC50) [4] | IC50 (whole blood; Homo sapiens) | Cu^2+ (Keq, M^−1) [5] | IC50 (white blood cells) | Fe^2+ (Keq, M^−1) [1, 6] | Lipid peroxidation (IC50) ([2]; means of 6 independent assays) | IC50 ([3]; second column of Table 9, pH 5.0, 5 μM testosterone, read-out: Type II 5 alpha reductase inhibition (IC50) (converted)) | Hydroxyl radial (IC50) ([4]; means of 6 independent assays) | IC50 (whole blood; fresh human blood, luminol, 30 min, 37° C.) | Cu^2+ (Keq, M^−1) [5, 6] | IC50 (white blood cells; 10^6 WBC, PMA 10 nM, 30 min, 37° C.)
CC1OC(OC2C(O)C(COC(=O)C=Cc3ccc(O)c(O)c3)OC(OCCc3ccc(O)c(O)c3)C2O)C(OC2OC(CO)C(O)C(O)C2O)C(O)C1O (centres unmarked) [Isoteupolioside, isoteupolioside] | 340000 ± 10000 M⁻¹ | 9.14 µg/mL | 33 µM | 1.04 µg/mL | 1.3 mg/mL (≈ 1650 µM) | 70000 ± 20000 M⁻¹ | 0.4 mg/mL (≈ 508 µM) |  |  |  |  |  |  | 
C[C@@H]1O[C@@H](O[C@@H]2[C@@H](O)[C@H](OCCc3ccc(O)c(O)c3)O[C@H](CO)[C@H]2OC(=O)/C=C/c2ccc(O)c(O)c2)[C@H](O[C@@H]2O[C@H](CO)[C@H](O)[C@H](O)[C@H]2O)[C@H](O)[C@H]1O [Teupolioside, teupolioside] |  |  |  |  |  |  |  | 350000 ± 20000 M⁻¹ | 9.4 µg/mL | 30.5 µM | 1.6 µg/mL | 1.4 mg/mL (≈ 1780 µM) | 80000 ± 30000 M⁻¹ | 0.5 mg/mL (≈ 636 µM)
